According to ChEMBL document CHEMBL2417394, “Exquisite selectivity for human toll-like receptor 8 in substituted furo[2,3-c]quinolines” (J Med Chem, 2013):
Calls of active or inactive are those of the source. The rule behind the calls is not given here.

Experiments:
[1] = biological target: T1, Nucleotide-binding oligomerization domain-containing protein 1 (Homo sapiens) (UniProt Q9Y239); experiment: Antagonist activity at NOD1 (unknown origin)
T1 sequence (whole entry): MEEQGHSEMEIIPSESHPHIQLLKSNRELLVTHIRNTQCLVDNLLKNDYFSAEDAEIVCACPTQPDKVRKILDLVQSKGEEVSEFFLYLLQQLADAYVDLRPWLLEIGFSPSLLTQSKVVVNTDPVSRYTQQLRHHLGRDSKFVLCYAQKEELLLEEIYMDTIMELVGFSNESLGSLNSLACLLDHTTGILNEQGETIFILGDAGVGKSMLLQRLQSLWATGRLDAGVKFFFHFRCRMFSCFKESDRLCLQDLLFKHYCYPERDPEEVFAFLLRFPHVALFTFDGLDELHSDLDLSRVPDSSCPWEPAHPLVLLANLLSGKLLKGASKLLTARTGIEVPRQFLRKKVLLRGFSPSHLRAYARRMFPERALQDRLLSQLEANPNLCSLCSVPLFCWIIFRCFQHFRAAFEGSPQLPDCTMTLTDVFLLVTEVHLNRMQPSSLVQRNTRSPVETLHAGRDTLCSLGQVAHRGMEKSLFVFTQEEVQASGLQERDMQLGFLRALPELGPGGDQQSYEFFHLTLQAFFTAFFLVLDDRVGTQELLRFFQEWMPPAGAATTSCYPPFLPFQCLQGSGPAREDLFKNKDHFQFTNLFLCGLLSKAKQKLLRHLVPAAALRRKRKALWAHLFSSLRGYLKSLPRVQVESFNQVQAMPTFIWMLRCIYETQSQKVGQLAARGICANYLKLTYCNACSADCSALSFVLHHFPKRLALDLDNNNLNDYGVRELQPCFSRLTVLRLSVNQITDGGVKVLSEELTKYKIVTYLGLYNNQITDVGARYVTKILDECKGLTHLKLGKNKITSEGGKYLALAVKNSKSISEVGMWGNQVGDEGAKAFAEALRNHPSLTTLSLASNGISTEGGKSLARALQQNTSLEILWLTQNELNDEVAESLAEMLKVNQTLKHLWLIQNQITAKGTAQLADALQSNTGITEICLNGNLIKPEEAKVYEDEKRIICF

[2] = biological target: Nucleotide-binding oligomerization domain-containing protein 2 (Homo sapiens) (UniProt Q9HC29); experiment: Antagonist activity at NOD2 (unknown origin)
Chain of Nucleotide-binding oligomerization domain-containing protein 2 (Homo sapiens) (Q9HC29 whole entry, the tested form may be a part): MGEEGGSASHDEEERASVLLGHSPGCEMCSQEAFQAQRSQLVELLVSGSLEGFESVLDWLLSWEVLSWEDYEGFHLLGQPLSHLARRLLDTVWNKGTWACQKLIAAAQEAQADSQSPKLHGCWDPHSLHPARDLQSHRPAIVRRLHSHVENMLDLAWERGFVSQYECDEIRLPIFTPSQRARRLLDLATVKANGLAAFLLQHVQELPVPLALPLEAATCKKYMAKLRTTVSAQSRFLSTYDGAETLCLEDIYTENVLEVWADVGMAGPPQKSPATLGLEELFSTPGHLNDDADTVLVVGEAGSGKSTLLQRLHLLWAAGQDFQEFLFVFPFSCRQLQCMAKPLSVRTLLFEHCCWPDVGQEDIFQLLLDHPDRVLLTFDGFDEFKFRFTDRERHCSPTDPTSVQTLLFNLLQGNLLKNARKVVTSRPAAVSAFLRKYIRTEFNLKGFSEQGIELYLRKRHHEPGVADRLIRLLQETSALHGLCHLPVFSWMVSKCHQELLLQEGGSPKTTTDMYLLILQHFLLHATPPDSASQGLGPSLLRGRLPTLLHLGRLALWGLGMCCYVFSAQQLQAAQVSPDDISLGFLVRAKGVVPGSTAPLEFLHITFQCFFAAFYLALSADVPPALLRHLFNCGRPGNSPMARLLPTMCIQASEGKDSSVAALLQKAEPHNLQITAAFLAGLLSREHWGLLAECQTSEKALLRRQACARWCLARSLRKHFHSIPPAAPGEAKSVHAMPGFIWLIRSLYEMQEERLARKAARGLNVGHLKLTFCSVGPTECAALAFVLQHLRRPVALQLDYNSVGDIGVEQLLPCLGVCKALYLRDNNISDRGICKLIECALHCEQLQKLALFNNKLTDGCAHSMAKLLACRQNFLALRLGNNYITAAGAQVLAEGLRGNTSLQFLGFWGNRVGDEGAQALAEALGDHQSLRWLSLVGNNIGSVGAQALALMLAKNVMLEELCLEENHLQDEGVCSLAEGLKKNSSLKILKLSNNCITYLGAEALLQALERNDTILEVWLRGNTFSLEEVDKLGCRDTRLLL

[3] = biological target: T2, Toll-like receptor 8 (Homo sapiens) (UniProt Q9NR97); experiment: Antagonist activity at human TLR8 expressed in HEK293 cells co-transfected with MD2 and sAP assessed as inhibition of NF-kappaB activity by reporter gene assay; type: cell-based
T2 sequence (whole entry): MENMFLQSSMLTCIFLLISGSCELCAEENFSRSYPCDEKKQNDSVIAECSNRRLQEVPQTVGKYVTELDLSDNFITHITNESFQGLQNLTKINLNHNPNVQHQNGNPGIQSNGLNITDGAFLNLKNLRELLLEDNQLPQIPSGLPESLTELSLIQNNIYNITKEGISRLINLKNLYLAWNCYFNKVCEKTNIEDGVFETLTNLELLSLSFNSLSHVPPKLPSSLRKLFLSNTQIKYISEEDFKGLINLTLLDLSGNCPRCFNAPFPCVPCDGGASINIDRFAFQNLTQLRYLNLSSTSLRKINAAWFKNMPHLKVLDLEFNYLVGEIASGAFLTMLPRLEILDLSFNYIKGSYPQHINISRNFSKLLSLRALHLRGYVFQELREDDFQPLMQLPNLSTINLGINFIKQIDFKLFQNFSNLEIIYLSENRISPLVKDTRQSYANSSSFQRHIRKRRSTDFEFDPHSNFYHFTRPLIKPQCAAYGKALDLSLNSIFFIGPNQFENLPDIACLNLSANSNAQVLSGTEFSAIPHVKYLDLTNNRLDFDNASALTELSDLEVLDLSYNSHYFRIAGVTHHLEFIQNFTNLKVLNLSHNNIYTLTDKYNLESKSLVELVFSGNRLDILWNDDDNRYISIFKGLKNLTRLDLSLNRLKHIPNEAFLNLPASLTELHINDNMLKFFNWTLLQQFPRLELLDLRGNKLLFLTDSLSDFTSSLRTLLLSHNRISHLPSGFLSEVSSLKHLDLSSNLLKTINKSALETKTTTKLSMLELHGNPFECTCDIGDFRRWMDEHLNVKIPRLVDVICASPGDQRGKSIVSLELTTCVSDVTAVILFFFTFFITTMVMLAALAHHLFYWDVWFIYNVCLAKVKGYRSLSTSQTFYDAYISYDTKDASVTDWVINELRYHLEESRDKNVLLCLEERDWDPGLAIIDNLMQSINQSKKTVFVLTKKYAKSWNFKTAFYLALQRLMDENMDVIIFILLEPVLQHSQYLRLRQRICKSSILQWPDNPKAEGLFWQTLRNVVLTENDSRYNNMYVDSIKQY

[4] = biological target: Toll-like receptor 5 (Homo sapiens) (UniProt O60602); experiment: Antagonist activity at human TLR5 expressed in HEK293 cells co-transfected with MD2 and sAP assessed as inhibition of NF-kappaB activity by reporter gene assay; type: cell-based
Chain of Toll-like receptor 5 (Homo sapiens) (O60602 whole entry): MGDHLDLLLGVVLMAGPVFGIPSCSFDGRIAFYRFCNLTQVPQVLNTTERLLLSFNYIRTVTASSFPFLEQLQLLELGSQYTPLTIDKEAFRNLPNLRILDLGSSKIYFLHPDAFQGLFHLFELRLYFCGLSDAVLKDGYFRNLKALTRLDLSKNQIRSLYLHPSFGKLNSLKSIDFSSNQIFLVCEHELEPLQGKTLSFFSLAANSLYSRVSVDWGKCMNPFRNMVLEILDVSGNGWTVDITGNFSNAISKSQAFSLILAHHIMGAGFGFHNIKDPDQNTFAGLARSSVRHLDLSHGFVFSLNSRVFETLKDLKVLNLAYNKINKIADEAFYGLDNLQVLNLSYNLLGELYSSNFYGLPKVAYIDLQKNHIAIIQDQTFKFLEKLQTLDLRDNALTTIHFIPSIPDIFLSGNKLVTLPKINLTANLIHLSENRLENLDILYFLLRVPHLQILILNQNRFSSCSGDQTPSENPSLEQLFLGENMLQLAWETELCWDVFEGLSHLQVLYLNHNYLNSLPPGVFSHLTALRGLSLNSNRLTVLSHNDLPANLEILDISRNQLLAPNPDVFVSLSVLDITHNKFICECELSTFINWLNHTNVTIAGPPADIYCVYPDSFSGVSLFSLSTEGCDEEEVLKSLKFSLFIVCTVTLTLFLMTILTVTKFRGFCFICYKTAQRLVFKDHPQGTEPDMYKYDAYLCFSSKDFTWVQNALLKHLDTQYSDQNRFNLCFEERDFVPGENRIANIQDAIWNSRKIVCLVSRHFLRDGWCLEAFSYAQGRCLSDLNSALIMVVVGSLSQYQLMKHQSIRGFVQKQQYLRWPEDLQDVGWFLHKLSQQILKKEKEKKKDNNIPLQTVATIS

[5] = biological target: Toll-like receptor 4 (Homo sapiens) (UniProt O00206); experiment: Antagonist activity at human TLR4 expressed in HEK293 cells co-transfected with MD2 and sAP assessed as inhibition of NF-kappaB activity by reporter gene assay; type: cell-based
Chain of Toll-like receptor 4 (Homo sapiens) (O00206 whole entry): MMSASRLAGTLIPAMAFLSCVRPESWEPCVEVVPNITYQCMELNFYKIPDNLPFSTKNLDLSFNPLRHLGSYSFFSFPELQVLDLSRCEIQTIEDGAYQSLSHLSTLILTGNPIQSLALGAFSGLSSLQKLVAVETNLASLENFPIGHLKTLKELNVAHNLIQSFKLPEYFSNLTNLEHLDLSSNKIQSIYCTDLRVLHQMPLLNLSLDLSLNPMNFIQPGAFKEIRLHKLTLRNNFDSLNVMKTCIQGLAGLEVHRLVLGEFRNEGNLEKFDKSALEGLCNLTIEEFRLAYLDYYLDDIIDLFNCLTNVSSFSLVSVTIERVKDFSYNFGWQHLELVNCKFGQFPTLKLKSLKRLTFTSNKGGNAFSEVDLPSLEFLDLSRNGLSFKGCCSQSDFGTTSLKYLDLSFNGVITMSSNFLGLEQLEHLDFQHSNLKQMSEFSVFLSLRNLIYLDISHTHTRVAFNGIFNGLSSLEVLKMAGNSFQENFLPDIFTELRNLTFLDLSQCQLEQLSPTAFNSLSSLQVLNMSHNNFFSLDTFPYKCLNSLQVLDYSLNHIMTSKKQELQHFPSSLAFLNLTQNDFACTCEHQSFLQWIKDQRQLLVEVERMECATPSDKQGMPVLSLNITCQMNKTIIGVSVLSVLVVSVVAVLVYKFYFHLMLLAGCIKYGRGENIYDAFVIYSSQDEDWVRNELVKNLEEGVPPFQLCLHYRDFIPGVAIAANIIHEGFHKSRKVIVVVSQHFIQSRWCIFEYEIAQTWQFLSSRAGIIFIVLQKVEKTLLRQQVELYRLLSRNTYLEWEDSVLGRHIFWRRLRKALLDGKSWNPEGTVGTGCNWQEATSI

[6] = biological target: Toll-like receptor 3 (Homo sapiens) (UniProt O15455); experiment: Antagonist activity at human TLR3 expressed in HEK293 cells co-transfected with MD2 and sAP assessed as inhibition of NF-kappaB activity by reporter gene assay; type: cell-based
Chain of Toll-like receptor 3 (Homo sapiens) (O15455 whole entry): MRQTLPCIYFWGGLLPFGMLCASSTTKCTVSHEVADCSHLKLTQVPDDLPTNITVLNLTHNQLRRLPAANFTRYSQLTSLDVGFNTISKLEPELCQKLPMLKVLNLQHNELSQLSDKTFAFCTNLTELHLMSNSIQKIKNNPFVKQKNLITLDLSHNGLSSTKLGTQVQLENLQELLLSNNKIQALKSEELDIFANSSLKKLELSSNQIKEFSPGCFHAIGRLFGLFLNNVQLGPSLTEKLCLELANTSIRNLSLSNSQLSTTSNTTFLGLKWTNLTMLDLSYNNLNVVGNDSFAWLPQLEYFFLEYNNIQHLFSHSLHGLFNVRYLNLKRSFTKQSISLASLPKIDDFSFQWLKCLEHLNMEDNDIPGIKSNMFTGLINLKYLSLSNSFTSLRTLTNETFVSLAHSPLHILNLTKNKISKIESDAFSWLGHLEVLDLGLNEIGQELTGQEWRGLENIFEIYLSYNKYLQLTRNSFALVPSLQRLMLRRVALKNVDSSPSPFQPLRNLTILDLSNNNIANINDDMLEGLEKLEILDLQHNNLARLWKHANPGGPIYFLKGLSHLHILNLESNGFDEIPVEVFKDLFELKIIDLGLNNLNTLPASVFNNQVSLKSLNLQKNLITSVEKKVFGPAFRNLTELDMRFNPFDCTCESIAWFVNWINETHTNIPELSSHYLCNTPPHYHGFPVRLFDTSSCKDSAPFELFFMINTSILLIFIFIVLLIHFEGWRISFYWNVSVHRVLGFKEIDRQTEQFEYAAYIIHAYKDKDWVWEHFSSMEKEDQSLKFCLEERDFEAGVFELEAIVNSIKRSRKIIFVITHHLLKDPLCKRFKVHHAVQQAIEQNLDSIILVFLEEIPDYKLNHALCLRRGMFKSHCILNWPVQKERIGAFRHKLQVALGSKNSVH

[7] = biological target: Toll-like receptor 2 (Homo sapiens) (UniProt O60603); experiment: Antagonist activity at human TLR2 expressed in HEK293 cells co-transfected with MD2 and sAP assessed as inhibition of NF-kappaB activity by reporter gene assay; type: cell-based
Chain of Toll-like receptor 2 (Homo sapiens) (O60603 whole entry): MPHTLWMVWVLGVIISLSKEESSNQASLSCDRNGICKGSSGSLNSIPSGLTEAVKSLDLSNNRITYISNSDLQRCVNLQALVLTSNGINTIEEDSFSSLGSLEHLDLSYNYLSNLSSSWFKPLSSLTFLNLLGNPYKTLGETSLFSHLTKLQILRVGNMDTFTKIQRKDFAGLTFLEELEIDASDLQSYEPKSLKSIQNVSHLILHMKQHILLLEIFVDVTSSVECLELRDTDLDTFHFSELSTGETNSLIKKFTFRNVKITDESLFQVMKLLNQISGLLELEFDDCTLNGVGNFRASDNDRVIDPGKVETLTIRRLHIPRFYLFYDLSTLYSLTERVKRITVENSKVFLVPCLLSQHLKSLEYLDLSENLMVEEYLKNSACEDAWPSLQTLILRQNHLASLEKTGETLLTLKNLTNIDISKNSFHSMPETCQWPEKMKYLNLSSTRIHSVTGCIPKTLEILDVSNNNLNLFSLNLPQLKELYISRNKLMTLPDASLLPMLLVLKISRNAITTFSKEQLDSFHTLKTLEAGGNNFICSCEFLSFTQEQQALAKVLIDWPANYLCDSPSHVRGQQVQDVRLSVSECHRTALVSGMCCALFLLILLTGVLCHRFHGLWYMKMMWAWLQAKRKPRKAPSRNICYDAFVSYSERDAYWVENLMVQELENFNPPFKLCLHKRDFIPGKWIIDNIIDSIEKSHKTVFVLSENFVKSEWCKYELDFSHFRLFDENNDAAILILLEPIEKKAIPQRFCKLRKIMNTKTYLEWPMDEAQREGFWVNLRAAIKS

inhibition [1] | inhibition [2] | inhibition [3] | inhibition [4] | inhibition [5] | inhibition [6] | inhibition [7] | SMILES
inactive | inactive | inactive | inactive | inactive | inactive | inactive | CCCc1cc2c(N)nc3ccccc3c2o1
inactive | inactive | inactive | inactive | inactive | inactive | inactive | Nc1nc2ccccc2c2oc(-c3ccccc3)cc12
inactive | inactive | inactive | inactive | inactive | inactive | inactive | CCCCc1cc2c(nc(N)c3ccccc32)o1
inactive | inactive | inactive | inactive | inactive | inactive | inactive | CCCCc1cc2c(N)nc3ccccc3c2o1
